pIC50: −log10 of the molar value.
Experiments:
[1] = tested on: Human mammary cancer MCF-7 cell; assay: Human mammary cancer MCF-7 cell growth inhibition test (neutral red); type: cell-based; conditions: MCF7, MCF-7 cells, medium with 10^-8M estradiol, 72 hours, neutral red, absorbance at 550 nm, read-out: IC50
Description: Human mammary cancer MCF-7 cell growth inhibition test
Each 0.1 ml of MCF-7 cells which had been prepared to 5 x 10^4/ml using a medium (referred to as Medium B hereinafter) prepared by adding 10% bovine fetal serum, 10^-8M estradiol (manufactured by Sigma), 100 units/ml penicillin and 100 µg/ml streptomycin to RPMI1640 medium was distributed in each well of 96 well-microtiter plate. […] Supernatant was removed, each 0.1 ml of Medium B containing 0.02% neutral red was added to the residue, the mixture was cultured at 37 °C for 1 hour in a CO2 gas incubator and the cells were stained by neutral red dye. Supernatant was removed and the residue was washed once with a physiological saline. Then, the dye was extracted with 0.001N hydrochloric acid/30% ethanol and the absorbance at 550 nm was determined with a microplatereader.

[2] = tested on: uterus weight of immature mice; assay: Effect against the increase in uterus weight of immature mice; type: in vivo, female BALB/c mice; conditions: dose 50 mg/kg, oral, three days, uteri isolated after four days
Description: The effect against the increase in uterus weight of immature mice
Immature female BALB/c mice, 4 weeks age, were divided into two groups and 50 µg of estradiol was subcutaneously administered to the animals of one group in the chest. The test compounds were repeatedly administered orally to each group (8 animals per group) for three days since the date of estradiol administration. After four days, the uteri were isolated and the weight thereof was measured.
In Table 2, "estradiol (-)" represents an estradiol-untreated group and "estradiol (+)" represents an estradiol-treated group.

[3] = tested on: estrogen-dependent human mammary cancer Br-10; assay: Antitumor effects against Br-10 tumor transplanted in nude mice; type: in vivo, female BALB/c-nu/nu mice; conditions: dose 25 mg/kg oral, 5 days per week for two to four weeks; judgement day 18
Source text: Antitumor effects against estrogen-dependent human mammary cancer Br-10
The tumor fragment (2mm x 2mm x 2mm) of human hormone dependent mammary cancer Br-10 was transplanted subcutaneously in the flank of female BALB/c-nu/nu mice (Nihon Crea), 7 to 9 weeks age. […] 3 to 4 Weeks after transplantation, mice the tumor volume of which increased to 30 to 150 mm^3 were selected, and the test compounds were orally administered repeatedly to the groups (5 animals per group) for 5 days per a week, for total two to four weeks. Estradiol propionate was additionally administered on the date of initial administration of the test compounds and 14 days after the administration. Length and breadth of the tumor were determined every day, and the tumor volumes were calculated by means of ellipsoid approximation according to the above equation. The tumor volume at initial administration (Vo) and on the day of judgement (V) was calculated, and the tumor growth rate (V/Vo) was calculated. T/C value was obtained as the ratio of V/Vo value of treated group relative to that of control group.

[4] = tested on: estrogen-dependent human mammary cancer MCF-7; assay: Antitumor effects against MCF-7 tumor transplanted in nude mice; type: in vivo, female BALB/c-nu/nu mice; conditions: Mus musculus, MCF7; dose 50 mg/kg oral, 5 days per week for two weeks; judgement day 18; read-out: T/C
Source text: Antitumor effects against estrogen-dependent human mammary cancer MCF-7
The tumor fragment (2mm x 2mm x 2mm) of human hormone dependent mammary cancer MCF-7 was transplanted subcutaneously in the flank of female BALB/c-nu/nu mice (Nihon Crea), 7 to 9 weeks age. […] 3 to 4 Weeks after transplantation, mice of the tumor volume of 25 to 200 mm^3 were selected, and the test compounds were orally administered repeatedly to the groups (5 animals per group) for 5 days per a week, for total two weeks. In addition, estradiol propionate was administered again on the date of initial administration of the test compounds. Length and width of the tumor were determined every day, and the tumor volumes were calculated by means of ellipsoid approximation according to the following equation: […] [formula] The tumor volume at initial administration (Vo) and on the day of judgement (V) was calculated, and the tumor growth rate (V/Vo) was calculated. T/C value was obtained as the ratio of V/Vo value of treated group relative to that of control group.

pIC50 [1]: 7.89
Compound: Cc1c(F)c(N)c2c(=O)cc(-c3ccc(N)c(F)c3)oc2c1F [Compound 1, 5-Amino-2-(4-amino-3-fluorophenyl)-6,8-difluoro-7-methyl-4H-1-benzopyran-4-one]
Weight of uterus ([2]; estradiol (+) (50 µg estradiol s.c.)): 38 mg
Weight of uterus ([2]; estradiol (-) (estradiol-untreated group)): 17 mg
T/C [3]: 0.12
response vs control in vivo at 50 mg/kg [4]: 6.4%

From patent EP0638566B1, “5-Aminoflavone derivatives, their preparation and their use as antibacterial, anti-estrogenic and/or antitumor agent” (KYOWA HAKKO KOGYO CO., LTD., priority 1993, dated 1995)
